Test results taken from patent US12213978B2, “Madrasin-derivative compounds, composition and uses thereof for treating cancer” (INSTITUT GUSTAVE ROUSSY, priority 2018, dated 2025).

Legend:
[1] = test system: MCA205 sarcoma cells expressing the intron-derived SL8 antigen; assay: T-cell assay: B3Z specific T-cell activation by MCA205 cells expressing the intron-derived SL8 antigen; type: cell-based, mouse; conditions: O/N
Method: (§1) MCA205 mouse sarcoma cell line is cultured at 37° C. under 5% CO2 in RPMI 1640 medium (Life Technologies) in the presence of 1% glutamine, 1% sodium pyruvate, 1% non-essential amino-acids, 1% penicillin/streptomycin and 10% FBS (Life Technologies). B16F10 mouse melanoma cell line is cultured at 37° C. under 5% CO2 in DMEM medium (Life Technologies) containing 1% glutamine, 1% penicillin/streptomycin and 10% FCS under standard conditions. Stable MCA205-Globin-SL8-intron cell line are cultured under the same condition as MCA205 cell line with additional 500 μg/ml G418 (Life Technologies) for selection. Stable B16F10-Globin-SL8-intron cell line are cultured under the same condition as B16F10 cell line with additional 500 μg/ml G418 (Life Technologies) for selection. The SL8/Kb-specific (B3Z) T-cell reporter hybridoma are cultured at 37° C. under 5% CO2 in RPMI 1640 medium (Life Technologies) in the presence of 1% L-glutamine, 1% penicillin/streptomycin, 50 μM β-mercaptoéthanol and 10% FCS.
(§2) MCA205 and B16F10 mouse cell lines are transfected with the plasmid YFP-Globin-SL8-intron or with the PCDNA3 empty plasmid (negative control) with the transfection reagent jetPRIME (Ozyme) or GeneJuice (Millipore) respectively according to each manufacturer protocol. Twenty-four hours after transfection, cells are treated with different doses of Madrasin (Sigma SML 1409), Madra.HCl (3·HCl) or the different compounds herein cited. Cells are then washed three times with PBS 1× and 5.10^4 tumor cells are co-cultured with 1.10^5 B3Z hybridoma in a 96-well plate. In positive control wells, 4 μg/ml of synthetic peptide SL8 is added. Cells are then incubated overnight at 37° C. with 5% CO2. The plate is centrifuged at 1200 rpm for 5 min, cells are washed twice with PBS 1× and lysed for 5 min at 4° C. under shaking in 0.2% TritonX-100, 0.2% DTT, 0.5M K2HPO4, 0.5M KH2PO4. The lysate is centrifuged at 3000 rpm for 10 min and the supernatant is transferred to a 96-well optiplate (OptiPlaque-96, PerkinElmer). A revelation buffer containing 10 mM MgCl2, 11.2 mM β-mercaptoethanol, 0.0015% IGEPAL® CA-630 and 40 μM 4-Methylumbelliferyl β-D-Galactopyranoside (MUG) in PBS is added and the plate is incubated at room temperature for 3 hours. Finally, the β-galactosidase activity is measured using the FLUOstar OPTIMA (BMG LABTECH Gmbh, 30 Offenburg, Germany). Results are expressed as mean±SEM. *P<0.05, **P<0.01, ***P<0.001 (unpaired student t test).

[2] = test system: B16F10 melanoma cells expressing the intron-derived SL8 antigen; assay: T-cell assay: B3Z specific T-cell activation by B16F10 cells expressing the intron-derived SL8 antigen; type: cell-based, mouse; conditions: O/N
Method: as §1, §2

Compound | PTP-SL8 presentation (B3Z T-cell activation) ([1]; MCA205, 60 μM) | PTP-SL8 presentation (B3Z T-cell activation) ([2]; B16F10, 60 μM) | PTP-SL8 presentation (B3Z T-cell activation) ([2]; B16F10, 20 μM) | further results
COc1ccc2c(C)nc(Nc3cn(C(=O)OC(C)(C)C)c4ccccc34)nc2c1 [EYP177, t-Butyl 3-((7-methoxy-4-methylquinazolin-2-yl)amino)-1H-indole-1-carboxylate] | not see any increase | not see any increase |  | 
COc1ccc2c(C)nc(Nc3ccc(OC)nc3)nc2c1 [EYP174, 7-Methoxy-N-(6-methoxypyridin-3-yl)-4-methylquinazolin-2-amine] |  |  | increase | 
COc1ccc2c(C)nc(Nc3ccnc(OC)n3)nc2c1 [EYP190, 7-Methoxy-N-(2-methoxypyrimidin-4-yl)-4-methylquinazolin-2-amine] |  | increase |  | 
COc1ccc2c(C)nc(Nc3nc(C)c(C)c(=O)[nH]3)nc2c1S[C@H]1O[C@@H](CO)[C@H](O)[C@@H](O)[C@@H]1O [EYP113, 2-((7-Methoxy-4-methyl-8-(((2R,3S,4R,5R,6S)-3,4,5-trihydroxy-6-(hydroxymethyl)tetrahydro-2H-pyran-2-yl)thio)quinazolin-2-yl)amino)-5,6-dimethylpyrimidin-4(3H)-one] |  |  |  | PTP-SL8 presentation (B3Z T-cell activation) ([1]; MCA205, 10 μM): not see any increase; PTP-SL8 presentation (B3Z T-cell activation) ([2]; B16F10, 10 μM): not see any increase
COc1ccc2c(C)nc(Nc3c[nH]c4ccccc34)nc2c1 [EYP165, N-(1H-Indol-3-yl)-7-methoxy-4-methylquinazolin-2-amine] | increase | increase |  | 
CNc1ccnc(Nc2nc(C)c3ccc(OC)cc3n2)n1 [EYP181, N^2-(7-Methoxy-4-methylquinazolin-2-yl)-N^4-methylpyrimidine-2,4-diamine] |  |  |  | PTP-SL8 presentation (B3Z T-cell activation) ([2]; B16F10, 10 μM): increase
COc1ccc2c(C)nc(Nc3ccc(C)cc3)nc2c1 [EYP156, 7-Methoxy-4-methyl-N-(p-tolyl)quinazolin-2-amine] | not see any increase | not see any increase |  | 
COc1ccc2c(C)nc(Nc3nc(C)c(C)c(=O)[nH]3)nc2c1SCC(NC(C)=O)C(=O)O (stereo not drawn) [EYP102, N-Acetyl-S-(2-((4,5-dimethyl-6-oxo-1,6-dihydropyrimidin-2-yl)amino)-7-methoxy-4-methylquinazolin-8-yl)cysteine] |  |  | not see any increase | PTP-SL8 presentation (B3Z T-cell activation) ([1]; MCA205, 20 μM): not see any increase
Cc1nc(Nc2nc(C)c3ccc(OCCN4CCOCC4)cc3n2)[nH]c(=O)c1C [EYP201, 5,6-Dimethyl-2-((4-methyl-7-(2-morpholinoethoxy)quinazolin-2-yl)amino)pyrimidin-4(3H)-one] |  |  | increase | PTP-SL8 presentation (B3Z T-cell activation) ([1]; MCA205, 20 μM): increase
COc1ccc2c(C)nc(Nc3nccc(OC)n3)nc2c1 [EYP179, 7-Methoxy-N-(4-methoxypyrimidin-2-yl)-4-methylquinazolin-2-amine] |  |  | increase | 
COc1ncc(Nc2ncc3ccccc3n2)cn1 [EYP281, N-(2-Methoxypyrimidin-5-yl)quinazolin-2-amine] |  |  |  | PTP-SL8 presentation (B3Z T-cell activation) ([1]; MCA205, 50 μM): increase; PTP-SL8 presentation (B3Z T-cell activation) ([2]; B16F10, 50 μM): increase
COc1ccc2c(C)nc(Nc3nc(C)c(C)c(=O)[nH]3)nc2c1SC1OC(COC(C)=O)C(OC(C)=O)C(OC(C)=O)C1OC(C)=O [EYP86, ((1S,2S,4R,5S,6S)-5-Acetoxy-7,8-diacetyl-4-((2-((4,5-dimethyl-6-oxo-1,6-dihydropyrimidin-2-yl)amino)-7-methoxy-4-methylquinazolin-8-yl)thio)-3,7λ^3,8λ^3-trioxabicyclo[4.2.0]octan-2-yl)methyl Acetate] |  |  |  | PTP-SL8 presentation (B3Z T-cell activation) ([1]; MCA205, 50 μM): increase
COc1ccc2c(C)nc(Nc3cc(OC)c(OC)c(OC)c3)nc2c1 [EYP188, 7-Methoxy-4-methyl-N-(3,4,5-trimethoxyphenyl)quinazolin-2-amine] | increase |  |  | 
